Assay results taken from ChEMBL document CHEMBL6182925 (J Med Chem, 2025).
Converted amounts (≈) assume the structure as drawn.

What was measured:
BaF3 [1] = test: Antitumor activity against mouse BaF3 cells harboring TPR-D1228N mutant cells allografted in athymic BALB/c nude mouse at 2 mg/kg, po bid treated for 10 days relative to control; type: functional; details: BaF3, 240 h, time 10 day, read-out: TGI
Homo sapiens [2] = species on record: Homo sapiens; test: Inhibition of c-MET D1228X/Y1230X mutant (unknown origin) at 100 nM in presence of ATP by HotSpot Kinome Selectivity analysis
[3] = biological target: 5-hydroxytryptamine receptor 1B (Homo sapiens) (UniProt P28222); test: Inhibition of 5-HT1B receptor (unknown origin) at 10 uM by CEREP analysis relative to control
Homo sapiens [4] = species on record: Homo sapiens; test: Inhibition of sodium channel site 2 (unknown origin) at 10 uM by CEREP analysis relative to control
[5] = Antitumor activity against human LU2503 cells xenografted in athymic BALB/c nude mouse at 60 mg/kg, po bid treated for 14 days relative to control; type: functional; details: LU2503, 336 h, time 14 day, read-out: TGI
Homo sapiens [6] = species on record: Homo sapiens; test: Inhibition of c-MET G1163R mutant (unknown origin) at 100 nM in presence of ATP by HotSpot Kinome Selectivity analysis
[7] = Toxicity in dog assessed as drug tolerance measured for 28 days; design: species or system Canis lupus familiaris; details: in vivo, 672 h, time 28 day
[8] = Kinetic solubility of compound at pH 4.5; type: physicochemical; details: buffer, read-out: Kinetic_solubility
Homo sapiens [9] = species on record: Homo sapiens; test: Inhibition of c-MET Y1230 mutant (unknown origin) at 100 nM in presence of ATP by HotSpot Kinome Selectivity analysis
[10] = AUClast in male Beagle dog at 10 mg/kg, po; type: ADME, organism-based, Canis lupus familiaris; details: in vivo
[11] = Antitumor activity against human LU2503 cells xenografted in athymic BALB/c nude mouse at 20 mg/kg, po bid treated for 14 days relative to control; type: functional; details: LU2503, 336 h, time 14 day, read-out: TGI
[12] = Clearance in male Beagle dog at 1 mg/kg, iv; type: ADME, organism-based, Canis lupus familiaris; details: in vivo
BaF3 [13] = test: cells; details: Mus musculus, BaF3, 72 h
[14] = Oral bioavailability in male Beagle dog at 10 mg/kg; type: ADME, organism-based, Canis lupus familiaris; details: in vivo
[15] = biological target: 5-hydroxytryptamine receptor 2B (Homo sapiens) (UniProt P41595); test: Inhibition of 5-HT2B receptor (unknown origin) at 10 uM by CEREP analysis relative to control
EBC-1 [16] = test: Antitumor activity against human EBC-1 cells xenografted in athymic BALB/c nude mouse at 20 mg/kg, po bid treated for 21 days relative to control; type: functional; details: EBC-1, 504 h, time 21 day, read-out: TGI
[17] = biological target: Hepatocyte growth factor receptor (Homo sapiens, UniProt P08581); test: Inhibition of N-terminal GST-tagged wild-type human c-MET (956 to 1390 residues) extracted from baculovirus infected Sf21 cells using 5-FAM-KKKKEEIYFFF-CONH2 as substrate preincubated for 30 mins followed by ATP addition measured after 60 mins by fluorescence-based microfluidic mobility shift assay
Homo sapiens [18] = species on record: Homo sapiens; test: Inhibition of c-MET D1228 mutant (unknown origin) at 100 nM in presence of ATP by HotSpot Kinome Selectivity analysis
BaF3 [19] = test: cells; details: Mus musculus, BaF3, 72 h; remark: listed apart in the source
BaF3 [20] = test: cells; details: Mus musculus, BaF3, 72 h; remark: listed apart in the source
[21] = Oral bioavailability in male Sprague-Dawley rat at 10 mg/kg; type: ADME, organism-based; details: in vivo
BaF3 [22] = test: cells; details: Mus musculus, BaF3, 72 h; remark: listed apart in the source
[23] = Half life in female Balb/c mouse at 1 mg/kg, iv; type: ADME, organism-based; details: in vivo
BaF3 [24] = test: cells; details: Mus musculus, BaF3, 72 h; remark: listed apart in the source
hERG = hERG (Homo sapiens, UniProt Q12809); test: Inhibition of hERG at 10 uM by CEREP analysis relative to control; type: toxicity
BaF3 [25] = test: cells; details: Mus musculus, BaF3, 72 h; remark: listed apart in the source
[26] = biological target: Macrophage-stimulating protein receptor (Homo sapiens) (UniProt Q04912); test: Inhibition of wild-type RON (unknown origin) at 100 nM by kinome selectivity analysis relative to control
Homo sapiens [27] = species on record: Homo sapiens; test: Inhibition of c-MET L1195X/F1200X mutant (unknown origin) at 100 nM in presence of ATP by HotSpot Kinome Selectivity analysis
BaF3 [28] = test: cells; details: Mus musculus, BaF3, 72 h; remark: listed apart in the source
[29] = biological target: Sodium-dependent serotonin transporter (Homo sapiens) (UniProt P31645); test: Inhibition of SERT (unknown origin) at 10 uM by CEREP analysis relative to control
[30] = Half life in male Beagle dog at 1 mg/kg, iv; type: ADME, organism-based, Canis lupus familiaris; details: in vivo
BaF3 [31] = test: cells; details: Mus musculus, BaF3, 72 h; remark: listed apart in the source
[32] = Toxicity in athymic BALB/c nude mouse xenografted with human LU2503 cells assessed as body weight loss at 2 to 60 mg/kg, po bid treated for 10 to 21 days; type: organism-based; details: in vivo, dose lower 2 mg/kg, time lower 10 day, dose upper 60 mg/kg, time upper 21 day
PXR = PXR (Homo sapiens, UniProt O75469); test: Induction of PXR (unknown origin) assessed as fold increase in activity at 1 uM relative to control; type: toxicity; details: read-out: FC
[33] = Kinetic solubility of compound at pH 2; type: physicochemical; details: buffer, read-out: Kinetic_solubility
[34] = biological target: 3',5'-cyclic-AMP phosphodiesterase 4D (Homo sapiens) (UniProt Q08499); test: Inhibition of PDE4D2 (unknown origin) at 10 uM by CEREP analysis relative to control
L-type calcium channel = L-type calcium channel (Homo sapiens, UniProt O60840+Q01668+Q13698+Q13936); test: Inhibition of Calcium channel L-type (unknown origin) at 10 uM by CEREP analysis relative to control; type: protein assay
EBC-1 [35] = test: Antitumor activity against human EBC-1 cells xenografted in athymic BALB/c nude mouse at 2 mg/kg, po bid treated for 21 days relative to control; type: functional; details: EBC-1, 504 h, time 21 day, read-out: TGI
[36] = Clearance in male Sprague-Dawley rat at 3 mg/kg, iv; type: ADME, organism-based; details: in vivo
BaF3 [37] = test: cells; details: Mus musculus, BaF3, 72 h; remark: listed apart in the source
[38] = Antitumor activity against human LU2503 cells xenografted in athymic BALB/c nude mouse at 6 mg/kg, po bid treated for 14 days relative to control; type: functional; details: LU2503, 336 h, time 14 day, read-out: TGI
AhR = AhR (Homo sapiens, UniProt P35869); test: Induction of AhR (unknown origin) assessed as fold increase in activity at 1 uM relative to control; type: toxicity; details: read-out: FC
Mus musculus [39] = test: In vivo inhibition of MET phosphorylation in human EBC-1 cells xenografted in athymic BALB/c nude mouse administered orally measured after 1 hr post-dose; type: functional, organism-based; details: dose 2-60 mg/kg, route po
[40] = Oral bioavailability in Balb/c mouse at 10 mg/kg; type: ADME, organism-based; details: in vivo
Mus musculus [41] = test: In vivo inhibition of MET phosphorylation in human LU2503 cells xenografted in athymic BALB/c nude mouse administered orally measured after 1 hr post-dose; type: functional, organism-based; details: dose 2-60 mg/kg, route po

Sequence of AhR (P35869 whole entry): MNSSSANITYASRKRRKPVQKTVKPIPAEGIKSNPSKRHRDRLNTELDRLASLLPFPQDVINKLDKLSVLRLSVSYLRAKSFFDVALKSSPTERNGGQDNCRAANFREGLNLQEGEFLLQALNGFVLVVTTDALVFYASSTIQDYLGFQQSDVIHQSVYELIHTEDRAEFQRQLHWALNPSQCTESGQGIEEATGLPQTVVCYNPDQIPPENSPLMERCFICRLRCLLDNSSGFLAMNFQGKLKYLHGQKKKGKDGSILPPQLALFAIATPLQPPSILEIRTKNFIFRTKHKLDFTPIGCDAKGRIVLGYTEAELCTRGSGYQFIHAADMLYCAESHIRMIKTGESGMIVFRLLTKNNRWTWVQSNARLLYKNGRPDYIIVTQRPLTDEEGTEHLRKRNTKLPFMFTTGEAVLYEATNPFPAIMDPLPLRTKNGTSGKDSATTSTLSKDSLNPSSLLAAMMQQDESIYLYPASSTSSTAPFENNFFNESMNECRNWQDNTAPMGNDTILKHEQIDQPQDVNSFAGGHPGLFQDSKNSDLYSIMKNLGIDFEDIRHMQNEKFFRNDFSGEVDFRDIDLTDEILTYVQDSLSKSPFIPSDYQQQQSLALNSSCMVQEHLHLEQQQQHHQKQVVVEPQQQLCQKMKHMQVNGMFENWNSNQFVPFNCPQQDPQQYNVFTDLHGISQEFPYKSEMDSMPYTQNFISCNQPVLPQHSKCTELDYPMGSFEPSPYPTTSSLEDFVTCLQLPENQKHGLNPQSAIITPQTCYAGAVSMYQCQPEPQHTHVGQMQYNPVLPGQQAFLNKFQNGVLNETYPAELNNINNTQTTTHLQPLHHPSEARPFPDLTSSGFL
Sequence of PXR (O75469 whole entry): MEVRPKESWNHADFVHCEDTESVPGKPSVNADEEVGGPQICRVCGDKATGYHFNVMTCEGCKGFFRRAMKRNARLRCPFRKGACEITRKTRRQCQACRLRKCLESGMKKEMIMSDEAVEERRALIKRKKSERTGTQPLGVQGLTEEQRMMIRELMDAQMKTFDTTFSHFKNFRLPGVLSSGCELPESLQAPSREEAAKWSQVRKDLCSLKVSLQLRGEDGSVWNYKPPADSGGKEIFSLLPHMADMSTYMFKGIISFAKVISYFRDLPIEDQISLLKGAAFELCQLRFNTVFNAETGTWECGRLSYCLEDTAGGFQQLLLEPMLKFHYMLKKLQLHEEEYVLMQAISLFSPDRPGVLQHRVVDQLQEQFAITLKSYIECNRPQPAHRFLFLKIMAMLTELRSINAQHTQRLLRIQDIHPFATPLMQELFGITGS
Sequence of Sodium-dependent serotonin transporter (Homo sapiens) (P31645 whole entry, looked up): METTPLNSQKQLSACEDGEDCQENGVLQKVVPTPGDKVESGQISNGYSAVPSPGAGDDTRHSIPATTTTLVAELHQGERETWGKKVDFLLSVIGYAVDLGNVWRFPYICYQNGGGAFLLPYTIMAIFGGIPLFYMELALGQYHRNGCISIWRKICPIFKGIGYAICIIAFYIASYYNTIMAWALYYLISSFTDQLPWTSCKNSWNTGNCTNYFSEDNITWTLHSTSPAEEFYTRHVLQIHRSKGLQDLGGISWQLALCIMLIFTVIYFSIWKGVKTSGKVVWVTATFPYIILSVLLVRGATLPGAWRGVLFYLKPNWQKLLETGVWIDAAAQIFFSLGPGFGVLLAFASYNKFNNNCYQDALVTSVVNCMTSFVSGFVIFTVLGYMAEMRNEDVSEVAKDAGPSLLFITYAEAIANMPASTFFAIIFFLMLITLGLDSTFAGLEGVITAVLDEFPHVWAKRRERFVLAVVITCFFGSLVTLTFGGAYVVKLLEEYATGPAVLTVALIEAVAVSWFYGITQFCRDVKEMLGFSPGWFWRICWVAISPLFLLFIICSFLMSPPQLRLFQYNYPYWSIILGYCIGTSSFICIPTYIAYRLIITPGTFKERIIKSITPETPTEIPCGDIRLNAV
Sequence of Macrophage-stimulating protein receptor (Homo sapiens) (Q04912 25-304 limits assumed): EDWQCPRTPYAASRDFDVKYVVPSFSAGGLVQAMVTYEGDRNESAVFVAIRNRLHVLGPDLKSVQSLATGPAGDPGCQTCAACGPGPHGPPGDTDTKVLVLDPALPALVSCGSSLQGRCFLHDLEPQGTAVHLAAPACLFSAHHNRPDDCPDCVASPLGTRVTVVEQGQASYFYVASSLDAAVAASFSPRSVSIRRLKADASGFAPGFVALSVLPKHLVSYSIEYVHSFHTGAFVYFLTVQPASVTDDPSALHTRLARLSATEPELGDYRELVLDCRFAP
Sequence of Macrophage-stimulating protein receptor (Homo sapiens) (Q04912 310-1400 limits assumed): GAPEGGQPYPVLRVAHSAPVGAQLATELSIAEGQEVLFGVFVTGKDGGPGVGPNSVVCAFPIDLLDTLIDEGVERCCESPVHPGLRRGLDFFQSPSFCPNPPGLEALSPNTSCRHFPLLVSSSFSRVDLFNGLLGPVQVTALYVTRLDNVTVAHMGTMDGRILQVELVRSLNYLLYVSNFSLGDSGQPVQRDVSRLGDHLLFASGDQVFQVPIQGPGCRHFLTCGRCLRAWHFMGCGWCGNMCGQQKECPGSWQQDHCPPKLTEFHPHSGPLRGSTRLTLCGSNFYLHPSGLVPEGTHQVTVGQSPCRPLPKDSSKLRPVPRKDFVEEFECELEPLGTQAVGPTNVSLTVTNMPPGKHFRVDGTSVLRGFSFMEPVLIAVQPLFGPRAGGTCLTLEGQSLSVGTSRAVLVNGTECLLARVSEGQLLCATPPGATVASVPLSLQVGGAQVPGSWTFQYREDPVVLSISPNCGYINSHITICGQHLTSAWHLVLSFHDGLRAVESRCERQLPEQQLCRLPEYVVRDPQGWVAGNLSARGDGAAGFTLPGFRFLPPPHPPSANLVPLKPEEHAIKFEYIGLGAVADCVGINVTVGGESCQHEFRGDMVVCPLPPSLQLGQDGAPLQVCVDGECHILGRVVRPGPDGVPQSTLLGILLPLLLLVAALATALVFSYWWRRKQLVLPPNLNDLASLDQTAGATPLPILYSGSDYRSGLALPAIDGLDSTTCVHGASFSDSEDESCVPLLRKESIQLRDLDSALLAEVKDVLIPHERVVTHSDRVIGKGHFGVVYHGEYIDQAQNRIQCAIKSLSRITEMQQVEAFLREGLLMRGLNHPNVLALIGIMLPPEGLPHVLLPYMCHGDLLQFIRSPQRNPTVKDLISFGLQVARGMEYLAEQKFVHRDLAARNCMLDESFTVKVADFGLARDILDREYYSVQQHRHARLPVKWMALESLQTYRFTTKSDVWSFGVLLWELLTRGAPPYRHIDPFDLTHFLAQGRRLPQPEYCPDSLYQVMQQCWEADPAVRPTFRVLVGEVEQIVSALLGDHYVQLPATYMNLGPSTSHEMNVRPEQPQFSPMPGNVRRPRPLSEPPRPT
Sequence of 5-hydroxytryptamine receptor 2B (Homo sapiens) (P41595 whole entry): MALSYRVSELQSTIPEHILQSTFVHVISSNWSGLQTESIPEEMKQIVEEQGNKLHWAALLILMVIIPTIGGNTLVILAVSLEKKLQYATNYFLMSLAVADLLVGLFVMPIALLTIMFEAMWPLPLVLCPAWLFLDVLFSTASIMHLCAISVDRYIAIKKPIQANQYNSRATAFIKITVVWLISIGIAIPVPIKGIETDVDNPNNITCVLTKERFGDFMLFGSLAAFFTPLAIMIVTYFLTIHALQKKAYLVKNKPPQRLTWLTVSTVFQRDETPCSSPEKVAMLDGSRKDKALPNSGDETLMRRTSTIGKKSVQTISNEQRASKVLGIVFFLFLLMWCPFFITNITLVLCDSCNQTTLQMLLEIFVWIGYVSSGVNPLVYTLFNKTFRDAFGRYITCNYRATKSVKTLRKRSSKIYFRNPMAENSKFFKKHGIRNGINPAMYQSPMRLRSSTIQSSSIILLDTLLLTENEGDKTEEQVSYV
Sequence of 3',5'-cyclic-AMP phosphodiesterase 4D (Homo sapiens) (Q08499 whole entry): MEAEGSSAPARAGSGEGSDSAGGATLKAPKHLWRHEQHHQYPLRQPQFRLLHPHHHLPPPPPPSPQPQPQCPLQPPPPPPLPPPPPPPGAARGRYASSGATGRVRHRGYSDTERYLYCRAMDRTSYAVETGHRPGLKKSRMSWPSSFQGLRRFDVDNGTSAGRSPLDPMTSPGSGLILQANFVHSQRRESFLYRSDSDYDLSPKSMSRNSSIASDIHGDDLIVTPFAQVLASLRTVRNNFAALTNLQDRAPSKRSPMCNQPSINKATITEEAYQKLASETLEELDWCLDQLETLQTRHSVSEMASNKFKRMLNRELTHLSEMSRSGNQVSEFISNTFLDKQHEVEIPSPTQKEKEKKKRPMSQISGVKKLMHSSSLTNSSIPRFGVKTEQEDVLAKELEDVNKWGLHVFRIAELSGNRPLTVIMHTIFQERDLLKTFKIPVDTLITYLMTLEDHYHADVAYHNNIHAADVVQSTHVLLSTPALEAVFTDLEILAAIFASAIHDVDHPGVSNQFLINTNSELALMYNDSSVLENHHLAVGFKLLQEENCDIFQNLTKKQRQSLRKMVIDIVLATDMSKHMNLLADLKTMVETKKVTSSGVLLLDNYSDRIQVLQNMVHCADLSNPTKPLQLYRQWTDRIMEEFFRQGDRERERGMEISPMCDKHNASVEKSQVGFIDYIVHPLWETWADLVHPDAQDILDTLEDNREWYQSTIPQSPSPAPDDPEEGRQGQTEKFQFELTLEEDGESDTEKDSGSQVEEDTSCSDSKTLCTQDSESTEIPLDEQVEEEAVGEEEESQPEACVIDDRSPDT
Sequence of 5-hydroxytryptamine receptor 1B (Homo sapiens) (P28222 whole entry): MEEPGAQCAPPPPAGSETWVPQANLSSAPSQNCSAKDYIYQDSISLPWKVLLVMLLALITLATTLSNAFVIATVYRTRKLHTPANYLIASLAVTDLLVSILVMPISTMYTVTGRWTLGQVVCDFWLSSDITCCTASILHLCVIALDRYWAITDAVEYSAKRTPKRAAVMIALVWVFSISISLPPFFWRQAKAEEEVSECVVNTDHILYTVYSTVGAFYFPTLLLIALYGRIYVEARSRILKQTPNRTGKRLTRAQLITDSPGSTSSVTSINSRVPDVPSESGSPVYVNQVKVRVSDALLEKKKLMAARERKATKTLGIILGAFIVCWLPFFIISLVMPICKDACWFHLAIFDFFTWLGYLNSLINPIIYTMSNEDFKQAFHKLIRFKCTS

SMILES: COc1cc2nccc(Oc3c(F)cc(NC(=O)c4cnccc4OC)cc3F)c2cc1O[C@@H](C)CO
- inhibition in vivo at 2 mg/kg (BaF3 [1]): 26%
- inhibition (Homo sapiens [2]): 49%
- inhibition [3]: -3%
- inhibition (Homo sapiens [4]): 40%
- inhibition in vivo at 60 mg/kg [5]: 113%
- inhibition (Homo sapiens [6]): 63%
- Activity [7]: Non-toxic
- solubility kinetic [8]: 145 µM (≈ 74.2 µg/mL)
- inhibition (Homo sapiens [9]): 0%
- AUC(0-t) [10]: 26400 ng·h/mL
- inhibition in vivo at 20 mg/kg [11]: 110%
- clearance [12]: 3.5 mL/min/kg
- EC50 (BaF3 [13]): 538 nM
- bioavailability [14]: 56%
- inhibition [15]: 48%
- inhibition in vivo at 20 mg/kg (EBC-1 [16]): 88%
- IC50 [17]: 0.2 nM
- inhibition (Homo sapiens [18]): 0%
- EC50 (BaF3 [19]): 13 nM
- EC50 (BaF3 [20]): 18 nM
- bioavailability [21]: 100%
- EC50 (BaF3 [22]): 2.5 nM
- half-life [23]: 108 min
- EC50 (BaF3 [24]): 8.6 nM
- inhibition at 10 µM (hERG): 18%
- EC50 (BaF3 [25]): 19 nM
- inhibition [26]: > 90%
- inhibition (Homo sapiens [27]): -4%
- EC50 (BaF3 [28]): 7.7 nM
- inhibition [29]: 1%
- half-life [30]: 378 min
- EC50 (BaF3 [31]): 37 nM
- Activity [32]: Non-toxic
- fold induction at 1 µM (PXR): < 1.5
- solubility kinetic [33]: 288 µM (≈ 147 µg/mL)
- inhibition [34]: 65%
- inhibition at 10 µM (L-type calcium channel): -4%
- inhibition in vivo at 2 mg/kg (EBC-1 [35]): 25%
- clearance [36]: 11.2 mL/min/kg
- EC50 (BaF3 [37]): 9.1 nM
- inhibition in vivo at 6 mg/kg [38]: 77%
- fold induction at 1 µM (AhR): < 1.5
- inhibition (Mus musculus [39]): Dose-dependent-effect
- bioavailability [40]: 100%
- inhibition (Mus musculus [41]): Dose-dependent-effect
